Measurements reported in patent US11382956B2, “Amylin analogues” (Zealand Pharma A/S, priority 2016, dated 2022).
Numbered stars: 1 amine (or outer) side, 2 acyl side, 3 side chain; on linkers, the order of the positions; unused ones are H or OH. Bridge positions count the residues as written; N and C are the ends. Square brackets hold non-standard residues; d marks the D form. Peptide text beside a SMILES is read from it. * marks the point of attachment. C20 diacid = O=C(O)CCCCCCCCCCCCCCCCCCC(=O)*; γGlu = O=C(O)[C@H](CCC(=O)[*:2])N[*:1]; Hyp = O=C(O)[C@@H]1C[C@@H](O)CN1; NMeI = CC[C@H](C)[C@H](NC)C(=O)O; Aad = N[C@@H](CCCC(=O)O)C(=O)O; hLys = NCCCCC[C@H](N)C(=O)O; Dab = NCC[C@H](N)C(=O)O; Dap = NC[C@H](N)C(=O)O; Sar = CNCC(=O)O

Tests used:
[1] = target: T1, recombinant human amylin 3 receptor (hAMYR3) (Homo sapiens, UniProt O60896+P30988); assay: hAMYR3 cAMP assay (AlphaScreen) in 1321N1 cells; format: cell-based; conditions: cAMP formation, 45 min stimulation
T1 construct: host or cells: human astrocytoma cell line 1321N1
T1 sequence (P30988 25-474): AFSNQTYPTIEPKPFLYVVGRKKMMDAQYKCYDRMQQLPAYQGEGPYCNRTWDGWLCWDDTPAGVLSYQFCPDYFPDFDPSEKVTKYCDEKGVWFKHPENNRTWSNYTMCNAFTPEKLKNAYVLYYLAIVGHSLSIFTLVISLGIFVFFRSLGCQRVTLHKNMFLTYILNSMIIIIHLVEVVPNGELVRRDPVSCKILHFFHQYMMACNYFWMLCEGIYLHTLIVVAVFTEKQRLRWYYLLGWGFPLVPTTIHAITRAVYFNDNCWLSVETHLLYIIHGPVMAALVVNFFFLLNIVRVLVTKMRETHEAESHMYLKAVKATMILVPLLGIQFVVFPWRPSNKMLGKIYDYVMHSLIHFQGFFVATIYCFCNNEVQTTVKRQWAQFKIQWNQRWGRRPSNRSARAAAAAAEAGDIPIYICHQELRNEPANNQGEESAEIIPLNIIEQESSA
T1 sequence (O60896 24-148 partner): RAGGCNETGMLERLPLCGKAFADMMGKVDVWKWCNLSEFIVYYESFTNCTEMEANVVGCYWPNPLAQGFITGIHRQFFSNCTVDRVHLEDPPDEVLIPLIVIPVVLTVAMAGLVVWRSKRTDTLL
Method in brief: (§1)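 1321N1 astrocytoma cells expressing recombinant human calcitonin receptor alone or with RAMP3 (AMY3) stimulated 45 min at room temperature with peptide in IBMX-containing buffer. cAMP quantified by AlphaScreen after 1 h bead incubation; EC50 fitted from at least 7 concentrations.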

[2] = target: T2, recombinant human calcitonin receptor (hCT-R) (Homo sapiens, UniProt P30988); assay: hCT-R cAMP assay (AlphaScreen) in 1321N1 cells; format: cell-based; conditions: cAMP formation, 45 min stimulation
T2 construct: host or cells: human astrocytoma cell line 1321N1
T2 sequence (P30988 25-474): T1 sequence (P30988 25-474)
Method in brief: as §1

[3] = Chemical stability, alternative analysis in MilliQ water with pH adjusted, 40° C. (RP-HPLC); format: physicochemical; conditions: for % degradation after 8 days at 40° C. pH4: pH adjusted to 4.0, 8 days; for % degradation after 8 days at 40° C. pH7.5: pH adjusted to 7.5, 8 days; for % degradation after 8 days at 40° C. pH9: pH adjusted to 9.0, 8 days
Method: In an alternative analysis, peptides were dissolved in MilliQ water and pH adjusted to 4.0, 7.5 or 9.0. Samples were placed in glass vials and incubated at 40° C. The samples were analyzed by RP-HPLC on a C8 column with gradient elution using a trifluoroacetic acid/acetonitrile/water eluent system. The area-percentage (area-%) of the main peak was determined by UV spectroscopy at 220 nm at each sampling time point.
The % degradation was calculated by subtracting the […].
The results of the chemical stability assessment after 8 days of incubation time are summarized as % degradation in Table 3 (below).

[4] = Effect on acute food intake and body weight in normal Sprague Dawley rats; format: in vivo, Sprague Dawley (SD) rats; conditions: Dose: 30 nmol/kg sc, vehicle-corrected
Text: Sprague Dawley (SD) rats were obtained from Janvier Labs, France. The animals arrived at least 14 days before the study start to allow acclimatization to experimental conditions. From arrival and throughout the study, the rats were housed in groups of 2 to 4 (n=2-4) in a light-, temperature- and humidity-controlled room. Animals had access ad libitum to food (KLIBA 3430, Provimi Kliba AG, Switzerland) and water (domestic quality tap water) during the entire study. Per group 6-8 rats were included. A vehicle group and positive control group were included in each set of tests. […] Dosing volume was 2 ml/kg. Food intake was recorded online using an automated food intake system (HM02, MBRose, Denmark) for 4 days or manually at 0 h for a predose and then 24, 48, 72 and 96 h post dosing. Body weight was measured daily.
Statistical analyses were performed using GraphPad™ Prism version 7. The measured parameters were compared using two-way ANOVA followed by Dunnett's multiple comparison tests. Differences were considered statistically significant at p<0.05.

[5] = Assessment of physical stability: fibril formation by Thioflavin T fluorescence; format: physicochemical; parameters: key: FND = fibrillation not detected; FD = fibrillation detected; conditions: 1 mg/mL peptide
Method in brief: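 Test peptide at 1 mg/mL with 40 μM ThT in 50 mM phosphate pH 7.0, 50 mM histidine pH 7.0, or 50 mM acetate pH 4.0, in triplicate. Fluorescence read every 10 min after 300 s agitation for 96 hours at 40° C; significant intensity rise scored as fibrillation detected (FD).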

[6] = Assessment of chemical stability in 40 mM buffers at 40° C. (RP-HPLC); format: physicochemical; conditions: 1 mg/mL
Method in brief: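 Peptides at 1 mg/mL in 40 mM acetate pH 4 or phosphate pH 6 and 7 were held at 40° C for 3 and 14 days. Main-peak area-% by C8 RP-HPLC, UV 220 nm; % degradation = change in main-peak area-% versus t=0.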

Compound	EC50 [1]	EC50 [2]	% degradation after 8 days at 40° C. pH4 [3]	% degradation after 8 days at 40° C. pH7.5 [3]	% degradation after 8 days at 40° C. pH9 [3]	Body weight reduction in % at 48 h [4]	Food intake reduction in % at 48 h [4]	Fibrillation (in buffer) pH4 acetate ([5]; 50 mM acetate buffer pH 4.0, 96 hours at 40° C.)	Fibrillation (in buffer) pH7 histidine ([5]; 50 mM histidine buffer pH 7.0, 96 hours at 40° C.)	Fibrillation (in buffer) pH7 phosphate ([5]; 50 mM phosphate buffer pH 7.0, 96 hours at 40° C.)	% degradation after 72 h at 40° C. pH4 acetate ([6]; acetate buffer pH 4, 72 h)	% degradation after 14 days at 40° C. pH4 acetate ([6]; acetate buffer pH 4, 14 days)	% degradation after 72 h at 40° C. pH6 phosphate ([6]; phosphate buffer pH 6, 72 h)	% degradation after 14 days at 40° C. pH6 phosphate ([6]; phosphate buffer pH 6, 14 days)	% degradation after 72 h at 40° C. pH7 phosphate ([6]; phosphate buffer pH 7, 72 h)	% degradation after 14 days at 40° C. pH7 phosphate ([6]; phosphate buffer pH 7, 14 days)
CC[C@H](C)[C@@H](C(=O)N[C@@H](CC(C)C)C(=O)N[C@@H](CO)C(=O)N[C@@H](CO)C(=O)N[C@H](C(=O)N[C@@H](CCC(=O)O)C(=O)N[C@H](C(=O)NCC(=O)N[C@@H](CO)C(=O)N[C@@H](CC(N)=O)C(=O)N[C@H](C(=O)N1C[C@H](O)C[C@H]1C(N)=O)[C@@H](C)O)C(C)C)[C@@H](C)O)N(C)C(=O)[C@H](C)NC(=O)CN(C)C(=O)[C@H](Cc1ccccc1)NC(=O)[C@H](CO)NC(=O)[C@H](CO)NC(=O)[C@H](CCCNC(=N)N)NC(=O)[C@H](CCC(N)=O)NC(=O)[C@H](CC(C)C)NC(=O)[C@H](Cc1ccccc1)NC(=O)[C@H](Cc1c[nH]cn1)NC(=O)[C@H](C)NC(=O)[C@H](CC(C)C)NC(=O)[C@H](CCCNC(=N)N)NC(=O)[C@H](CCC(=O)O)NC(=O)[C@@H](NC(=O)[C@H](C)NC(=O)[C@@H]1CCCCCNC(=O)C[C@H](NC(=O)[C@H](CCCNC(=N)N)NC(=O)CC[C@H](NC(=O)CCCCCCCCCCCCCCCCCCC(=O)O)C(=O)O)C(=O)NCC(=O)N[C@@H]([C@@H](C)O)C(=O)N[C@@H](C)C(=O)N[C@@H]([C@@H](C)O)C(=O)N1)[C@@H](C)O [Compound 19, [19CD]-isoGlu-RD()GTAT-hLys()-ATERLAHFLQRSSF-Gly(Me)-A-Ile(Me)-LSSTEVGSNT-Hyp-NH2] ({C20 diacid-γGlu}-RDGTAT[hLys]ATERLAHFLQRSSF[Sar]A[NMeI]LSSTEVGSNT[Hyp]-NH2; lactam 2-7)	0.006 nM	0.028 nM	3.9%	6.2%	4.2%	–	–	–	–	–	–	–	–	–	–	–
CC[C@H](C)[C@@H](C(=O)N[C@@H](CC(C)C)C(=O)N[C@@H](CO)C(=O)N[C@@H](CO)C(=O)N[C@H](C(=O)N[C@@H](CCC(=O)O)C(=O)N[C@H](C(=O)NCC(=O)N[C@@H](CO)C(=O)N[C@@H](CC(N)=O)C(=O)N[C@H](C(=O)N1C[C@H](O)C[C@H]1C(N)=O)[C@@H](C)O)C(C)C)[C@@H](C)O)N(C)C(=O)[C@H](C)NC(=O)CN(C)C(=O)[C@H](Cc1ccccc1)NC(=O)[C@H](CO)NC(=O)[C@H](CO)NC(=O)[C@H](CCCNC(=N)N)NC(=O)[C@H](CCC(N)=O)NC(=O)[C@H](CC(C)C)NC(=O)[C@H](Cc1ccccc1)NC(=O)[C@H](CC(=O)O)NC(=O)[C@H](C)NC(=O)[C@H](CC(C)C)NC(=O)[C@H](CCCNC(=N)N)NC(=O)[C@H](CCC(N)=O)NC(=O)[C@@H](NC(=O)[C@H](C)NC(=O)[C@@H]1CCCCNC(=O)C[C@H](NC(=O)[C@H](CCCNC(=N)N)NC(=O)CC[C@H](NC(=O)CCCCCCCCCCCCCCCCCCC(=O)O)C(=O)O)C(=O)NCC(=O)N[C@@H]([C@@H](C)O)C(=O)N[C@@H](C)C(=O)N[C@@H]([C@@H](C)O)C(=O)N1)[C@@H](C)O [Compound 41, [19CD]-isoGlu-RD()GTATK()ATQRLADFLQRSSF-Gly(Me)-A-Ile(Me)-LSSTEVGSNT-Hyp-NH2] ({C20 diacid-γGlu}-RDGTATKATQRLADFLQRSSF[Sar]A[NMeI]LSSTEVGSNT[Hyp]-NH2; lactam 2-7)	0.024 nM	0.095 nM	–	–	–	11%	75%	FND	FND	FND	<1%	1.1%	<1%	<1%	<1%	<1%
CC[C@H](C)[C@@H](C(=O)N[C@@H](CC(C)C)C(=O)N[C@@H](CO)C(=O)N[C@@H](CO)C(=O)N[C@H](C(=O)N[C@@H](CCC(=O)O)C(=O)N[C@H](C(=O)NCC(=O)N[C@@H](CO)C(=O)N[C@@H](CC(N)=O)C(=O)N[C@H](C(=O)N1C[C@H](O)C[C@H]1C(N)=O)[C@@H](C)O)C(C)C)[C@@H](C)O)N(C)C(=O)[C@H](C)NC(=O)CN(C)C(=O)[C@H](Cc1ccccc1)NC(=O)[C@H](CO)NC(=O)[C@H](CO)NC(=O)[C@H](CCCNC(=N)N)NC(=O)[C@H](CCC(N)=O)NC(=O)[C@H](CC(C)C)NC(=O)[C@H](Cc1ccccc1)NC(=O)[C@H](Cc1c[nH]cn1)NC(=O)[C@H](C)NC(=O)[C@H](CC(C)C)NC(=O)[C@H](CCCNC(=N)N)NC(=O)[C@H](CCC(=O)O)NC(=O)[C@@H](NC(=O)[C@H](C)NC(=O)[C@@H]1CCCC(=O)NC[C@H](NC(=O)[C@H](CCCNC(=N)N)NC(=O)CC[C@H](NC(=O)CCCCCCCCCCCCCCCCCCC(=O)O)C(=O)O)C(=O)NCC(=O)N[C@@H]([C@@H](C)O)C(=O)N[C@@H](C)C(=O)N[C@@H]([C@@H](C)O)C(=O)N1)[C@@H](C)O [Compound 48, [19CD]-isoGlu-R-Dap()-GTAT-Aad()-ATERLAHFLQRSSF-Gly(Me)-A-Ile(Me)-LSSTEVGSNT-Hyp-NH2] ({C20 diacid-γGlu}-R[Dap]GTAT[Aad]ATERLAHFLQRSSF[Sar]A[NMeI]LSSTEVGSNT[Hyp]-NH2; lactam 2-7)	0.02 nM	0.107 nM	1.8%	2.3%	2.5%	–	–	–	–	–	–	–	–	–	–	–
CC[C@H](C)[C@@H](C(=O)N[C@@H](CC(C)C)C(=O)N[C@@H](CO)C(=O)N[C@@H](CO)C(=O)N[C@H](C(=O)N[C@@H](CCC(=O)O)C(=O)N[C@H](C(=O)NCC(=O)N[C@@H](CO)C(=O)N[C@@H](CC(N)=O)C(=O)N[C@H](C(=O)N1C[C@H](O)C[C@H]1C(N)=O)[C@@H](C)O)C(C)C)[C@@H](C)O)N(C)C(=O)[C@H](C)NC(=O)CN(C)C(=O)[C@H](Cc1ccccc1)NC(=O)[C@H](CO)NC(=O)[C@H](CO)NC(=O)[C@H](CCCNC(=N)N)NC(=O)[C@H](CCC(N)=O)NC(=O)[C@H](CC(C)C)NC(=O)[C@H](Cc1ccccc1)NC(=O)[C@H](Cc1c[nH]cn1)NC(=O)[C@H](C)NC(=O)[C@H](CC(C)C)NC(=O)[C@H](CCCNC(=N)N)NC(=O)[C@H](CCC(=O)O)NC(=O)[C@@H](NC(=O)[C@H](C)NC(=O)[C@@H]1CCC(=O)NCC[C@H](NC(=O)[C@H](CCCNC(=N)N)NC(=O)CC[C@H](NC(=O)CCCCCCCCCCCCCCCCCCC(=O)O)C(=O)O)C(=O)NCC(=O)N[C@@H]([C@@H](C)O)C(=O)N[C@@H](C)C(=O)N[C@@H]([C@@H](C)O)C(=O)N1)[C@@H](C)O [Compound 49, [19CD]-isoGlu-R-Dab()-GTATE()ATERLAHFLQRSSF-Gly(Me)-A-Ile(Me)-LSSTEVGSNT-Hyp-NH2] ({C20 diacid-γGlu}-R[Dab]GTATEATERLAHFLQRSSF[Sar]A[NMeI]LSSTEVGSNT[Hyp]-NH2; lactam 2-7)	0.442 nM	1.04 nM	1.7%	2.1%	3.0%	–	–	–	–	–	–	–	–	–	–	–
